Data taken from PMC8546428, “Convergent olfactory trace amine-associated receptors detect biogenic polyamines with distinct motifs via a conserved binding site” (The Journal of Biological Chemistry, 2021).
Numbering of substitutions follows the chain as printed.

Experiments:
[1] = molecular target: T1, mTAAR9 W7.40A (Mus musculus, UniProt Q5QD04, W298A); experiment: CRE-luciferase reporter assay, mTAAR9 mutant in Hana3A; assay type: cell-based; settings: read-out: EC50 (mean ± S.D., n = 3)
T1 construct: expressed in transfected cells; host or cells: Hana3A (HEK293-derived)
T1 sequence (Q5QD04 1-348 W298A): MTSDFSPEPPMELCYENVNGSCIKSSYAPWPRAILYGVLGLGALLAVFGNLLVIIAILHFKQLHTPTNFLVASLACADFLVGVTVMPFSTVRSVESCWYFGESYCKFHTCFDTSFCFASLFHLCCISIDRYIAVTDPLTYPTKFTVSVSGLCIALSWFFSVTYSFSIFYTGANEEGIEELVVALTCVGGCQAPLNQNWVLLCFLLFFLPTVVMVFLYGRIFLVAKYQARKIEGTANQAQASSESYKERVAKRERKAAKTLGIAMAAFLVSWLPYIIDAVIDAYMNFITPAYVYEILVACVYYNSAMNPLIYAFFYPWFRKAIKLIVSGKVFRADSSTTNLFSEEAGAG

[2] = molecular target: T2, sTAAR365 T7.42V (Petromyzon marinus, UniProt A0A678XMK4, T298V)
T2 sequence (A0A678XMK4 1-365 T298V): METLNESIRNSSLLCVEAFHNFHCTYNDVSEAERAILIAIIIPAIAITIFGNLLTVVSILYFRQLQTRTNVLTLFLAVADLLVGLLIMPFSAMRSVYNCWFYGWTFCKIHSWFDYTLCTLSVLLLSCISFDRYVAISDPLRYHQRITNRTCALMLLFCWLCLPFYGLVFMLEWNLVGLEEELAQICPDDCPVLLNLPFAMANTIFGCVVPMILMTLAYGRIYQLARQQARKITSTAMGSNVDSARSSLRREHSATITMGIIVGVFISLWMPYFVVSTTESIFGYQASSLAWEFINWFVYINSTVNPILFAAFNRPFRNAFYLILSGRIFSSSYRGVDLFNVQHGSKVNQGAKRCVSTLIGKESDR

[3] = molecular target: T3, mTAAR9 Y6.51W (Mus musculus, UniProt Q5QD04, Y274W); experiment: CRE-luciferase reporter assay, mTAAR9 mutant in Hana3A; assay type: cell-based; settings: read-out: EC50 (mean ± S.D., n = 3)
T3 construct: expressed in transfected cells; host or cells: Hana3A (HEK293-derived)
T3 sequence (Q5QD04 1-348 Y274W): T1 sequence (Q5QD04 1-348 W298A) with Y274W, A298W

[4] = system: sTAAR348; settings: expressed in HEK293T cells; cited from earlier work
[5] = system: sTAAR365 Y6.51A; experiment: cAMP TR-FRET assay, sTAAR365 mutant in HEK293T; assay type: cell-based, sea lamprey; settings: cAMP production
From the text: All mutants were verified by DNA sequencing.

[6] = molecular target: T4, WT mTAAR9 (Mus musculus, UniProt Q5QD04); experiment: CRE-luciferase reporter assay, wild-type mTAAR9 in Hana3A; assay type: cell-based; settings: mouse TAAR9, ligand 1 mM, Fig. 1B
T4 construct: Rho-tag (first 20 amino acids of bovine rhodopsin) (N); expressed in transfected cells; host or cells: Hana3A (HEK293-derived)
T4 sequence (Q5QD04 1-348): T1 sequence (Q5QD04 1-348 W298A) with A298W
Experimental: Mammalian TAAR9 plasmids were transfected into Hana3A cells along with a cAMP-dependent luciferase reporter plasmid (CRE-Luc). Transfected cells were incubated with tested ligands, and luciferase activity was quantified with a […] substrate as a reporter for Golf-mediated TAAR activation. Luciferase activity was indicated by the luminescence value and normalized as a fold-increase over the response to the vehicle stimuli (mean ± S.D., n = 3). […] B, Hana3A cells expressing mouse, rat, human, cat, hamster, and rabbit TAAR9 were incubated with either vehicle or tested ligands (1 mM) and assayed for reporter activity. C, concentration-dependent luciferase activity in Hana3A cells expressing mouse, rat, and cat TAAR9 receptors stimulated with cadaverine, spermidine, and spermine.
The firefly luciferase and renilla luciferase activity was measured with a BioTek microplate reader following manufacturer’s instructions.

SMILES: NCCCCCN [cadaverine]
- EC50 [1]: > 1000 µM
- increase of EC50 vs wild-type sTAAR365 [2]: over three
- EC50 [3]: > 1000 µM

SMILES: NCCCNCCCCNCCCN [spermine]
- response of sTAAR348 [4]: responds

SMILES: NCCCCN [putrescine]
- EC50 (mean ± S.D., n = 3) [5]: loss
- reporter activity (activation of TAAR9) [6]: not activated
